Results on one compound are retold here after patent US8044103B2, “Cyclic dipeptides and azetidinone compounds and their use in treating CNS injury and neurodegenerative disorders” (Georgetown University, priority 1998, dated 2011).

The subject of this series is rats following moderate fluid percussion injury. The series can be described thus: Mortality after moderate fluid percussion injury. The format is in vivo, Male Sprague-Dawley rats. As to conditions: 1 mg/kg i.v. 30 min following moderate fluid percussion injury; died before the end of the study; saline 21.4% and 37.5%. Here is the method: Rats were anesthetized with sodium pentobarbital (70 mg/kg i.p.), intubated, and implanted with femoral venous and arterial catheters. Brain temperature was assessed indirectly through a thermister in the temporalis muscle. Body temperature was maintained through a feedback-controlled heating blanket. Blood pressure was continuously monitored, and arterial blood gases analyzed periodically. After the animal was placed in a stereotaxic frame, the scalp and temporal muscle were reflected, and a small craniotomy (5 mm) located midway between the lambda and bregma sutures over the left parietal cortex allowed insertion of a Leur-Loc that is cemented in place. The fluid-percussion head injury device, manufactured by the Medical College of Virginia, consists of a plexiglass cylindrical reservoir filled with isotonic saline; one end includes a transducer that is mounted and connected to a 5 mm tube that attaches through a male Leur-Loc fitting to the female Leur-Loc cemented at the time of surgery. A pendulum strikes a piston at the opposite end of the device, producing a pressure pulse of approximately 22 msec duration, leading to deformation of underlying brain. The degree of injury is related to the pressure pulse, expressed in atmospheres (atm): 2.6 atm in our laboratory produces a moderate injury with regard to neurological and histological deficit. Sham (control) animals undergo anesthesia and surgery without fluid percussion brain injury. […]
Continuous variables compared across groups were examined using an analysis of variance (ANOVA) followed by Bonferroni correction (rightin reflex). Continuous variables subjected to repeated measurements over a period of time (cardiovascular and core temperature measurements) were analyzed using a repeated measurements ANOVA followed by Tukey's pairwise comparison at each time point. Ordinal measurements (composite neurological scores) were evaluated using the non-parametric Kruskal-Wallis ANOVA with individual, non-parametric Mann-Whitney U-tests. […]

`O=C1NC2(CCCCC2)C(=O)N2CCC[C@@H]12` [Compound 2a, Cyclo[(1-Amino-1-Cyclohexane-Carboxylic Acid)-Pro]] registered a mortality rate of 25%.
